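Method: 48-hour compound exposure of cells in 96-well plates, five concentrations, linear interpolation of endpoints. Here, GI50 denotes the concentration required for 50% inhibition of growth. The concentration for full growth arrest is given as TGI.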
Assays:
Test in all cases: growth of human tumour cells (NCI), 48 h
SN12C renal = tested on: SN12C renal
NCI-H522 lung = tested on: NCI-H522 lung
A549 NSCLC = tested on: A549 NSCLC
MOLT-4 leukemia = tested on: MOLT-4 leukemia
HOP-62 NSCLC = tested on: HOP-62 NSCLC
MCF7 breast = tested on: MCF7 breast
HL-60(TB) leukemia = tested on: HL-60(TB) leukemia
SNB-19 CNS = tested on: SNB-19 CNS
ACHN renal = tested on: ACHN renal
U251 CNS = tested on: U251 CNS
HOP-92 NSCLC = tested on: HOP-92 NSCLC
SW-620 colon = tested on: SW-620 colon
OVCAR-3 ovarian = tested on: OVCAR-3 ovarian
UACC-257 melanoma = tested on: UACC-257 melanoma
A498 renal = tested on: A498 renal
SF-539 CNS = tested on: SF-539 CNS
OVCAR-5 ovarian = tested on: OVCAR-5 ovarian
HCT-15 colon = tested on: HCT-15 colon
MDA-MB-231 breast = tested on: MDA-MB-231 breast
EKVX NSCLC = tested on: EKVX NSCLC
HT29 colon = tested on: HT29 colon
IGROV1 ovarian = tested on: IGROV1 ovarian
CCRF-CEM leukemia = tested on: CCRF-CEM leukemia
HCC-2998 colon = tested on: HCC-2998 colon
RXF 393 renal = tested on: RXF 393 renal
SK-MEL-28 melanoma = tested on: SK-MEL-28 melanoma
SF-295 CNS = tested on: SF-295 CNS
M14 melanoma = tested on: M14 melanoma
BT-549 breast = tested on: BT-549 breast
786-0 renal = tested on: 786-0 renal
MALME-3M melanoma = tested on: MALME-3M melanoma
HCT-116 colon = tested on: HCT-116 colon
UO-31 renal = tested on: UO-31 renal
CAKI-1 renal = tested on: CAKI-1 renal
TK-10 renal = tested on: TK-10 renal
HS 578T breast = tested on: HS 578T breast
PC-3 prostate = tested on: PC-3 prostate
KM12 colon = tested on: KM12 colon
NCI/ADR-RES ovarian = tested on: NCI/ADR-RES ovarian
UACC-62 melanoma = tested on: UACC-62 melanoma
SK-MEL-5 melanoma = tested on: SK-MEL-5 melanoma
K-562 leukemia = tested on: K-562 leukemia
MDA-MB-435 = tested on: MDA-MB-435
SK-MEL-2 melanoma = tested on: SK-MEL-2 melanoma
LOX IMVI melanoma = tested on: LOX IMVI melanoma
SK-OV-3 ovarian = tested on: SK-OV-3 ovarian
NCI-H226 lung = tested on: NCI-H226 lung
COLO 205 colon = tested on: COLO 205 colon
SF-268 CNS = tested on: SF-268 CNS
NCI-H460 lung = tested on: NCI-H460 lung
RPMI-8226 leukemia = tested on: RPMI-8226 leukemia
DU-145 prostate = tested on: DU-145 prostate
OVCAR-8 ovarian = tested on: OVCAR-8 ovarian
NCI-H23 lung = tested on: NCI-H23 lung

Q: `CCCOc1cc2ccccc2cc1C(=O)Nc1nc(NC)c2c(ccc3nccc32)[nH]1` was tested. Which GI50 (SN12C renal) did it give?
A: The GI50 was 1720 nM.

Q: And the TGI (SN12C renal)?
A: The TGI was 3480 nM.

Q: What about the GI50 (NCI-H522 lung) of the same molecule?
A: The GI50 was 44.9 nM.

Q: And the TGI (NCI-H522 lung)?
A: Its TGI is 219 nM.

Q: And the GI50 (A549 NSCLC)?
A: The GI50 was 978 nM.

Q: What about the TGI (A549 NSCLC) of the same molecule?
A: The TGI was 2390 nM.

Q: And the GI50 (MOLT-4 leukemia)?
A: Its GI50 is 496 nM.

Q: And the TGI (MOLT-4 leukemia)?
A: Its TGI is 2320 nM.

Q: What about the GI50 (HOP-62 NSCLC) of the same molecule?
A: Its GI50 is 779 nM.

Q: What about the TGI (HOP-62 NSCLC) of the same molecule?
A: The TGI was 2280 nM.

Q: And the GI50 (MCF7 breast)?
A: The GI50 was 263 nM.

Q: And the TGI (MCF7 breast)?
A: Its TGI is 1310 nM.

Q: And the GI50 (HL-60(TB) leukemia)?
A: Its GI50 is 230 nM.

Q: And the TGI (HL-60(TB) leukemia)?
A: Its TGI is 611 nM.

Q: And the GI50 (SNB-19 CNS)?
A: Its GI50 is 701 nM.

Q: What about the TGI (SNB-19 CNS) of the same molecule?
A: The TGI was 2230 nM.

Q: And the GI50 (ACHN renal)?
A: The GI50 was 520 nM.

Q: And the TGI (ACHN renal)?
A: Its TGI is 1910 nM.

Q: And the GI50 (U251 CNS)?
A: The GI50 was 521 nM.

Q: And the TGI (U251 CNS)?
A: Its TGI is 1740 nM.

Q: And the GI50 (HOP-92 NSCLC)?
A: Its GI50 is 1150 nM.

Q: What about the TGI (HOP-92 NSCLC) of the same molecule?
A: Its TGI is 2510 nM.

Q: What about the GI50 (SW-620 colon) of the same molecule?
A: Its GI50 is 383 nM.

Q: What about the TGI (SW-620 colon) of the same molecule?
A: Its TGI is 1740 nM.

Q: And the GI50 (OVCAR-3 ovarian)?
A: The GI50 was 248 nM.

Q: And the TGI (OVCAR-3 ovarian)?
A: Its TGI is 1130 nM.

Q: What about the GI50 (UACC-257 melanoma) of the same molecule?
A: The GI50 was 1210 nM.

Q: And the TGI (UACC-257 melanoma)?
A: The TGI was 2560 nM.

Q: And the GI50 (A498 renal)?
A: The GI50 was 359 nM.

Q: What about the TGI (A498 renal) of the same molecule?
A: Its TGI is 1750 nM.

Q: What about the GI50 (SF-539 CNS) of the same molecule?
A: The GI50 was 623 nM.

Q: What about the TGI (SF-539 CNS) of the same molecule?
A: Its TGI is 2060 nM.

Q: And the GI50 (OVCAR-5 ovarian)?
A: The GI50 was 1400 nM.

Q: And the TGI (OVCAR-5 ovarian)?
A: The TGI was 3000 nM.

Q: What about the GI50 (HCT-15 colon) of the same molecule?
A: The GI50 was 240 nM.

Q: What about the TGI (HCT-15 colon) of the same molecule?
A: The TGI was 1030 nM.

Q: And the GI50 (MDA-MB-231 breast)?
A: Its GI50 is 1340 nM.

Q: And the TGI (MDA-MB-231 breast)?
A: The TGI was 2870 nM.

Q: What about the GI50 (EKVX NSCLC) of the same molecule?
A: Its GI50 is 611 nM.

Q: And the TGI (EKVX NSCLC)?
A: The TGI was 2040 nM.

Q: And the GI50 (HT29 colon)?
A: The GI50 was 208 nM.

Q: What about the TGI (HT29 colon) of the same molecule?
A: Its TGI is 446 nM.

Q: And the GI50 (IGROV1 ovarian)?
A: Its GI50 is 1170 nM.

Q: And the TGI (IGROV1 ovarian)?
A: Its TGI is 2710 nM.

Q: And the GI50 (CCRF-CEM leukemia)?
A: The GI50 was 311 nM.

Q: What about the TGI (CCRF-CEM leukemia) of the same molecule?
A: Its TGI is 1040 nM.

Q: What about the GI50 (HCC-2998 colon) of the same molecule?
A: The GI50 was 1110 nM.

Q: What about the TGI (HCC-2998 colon) of the same molecule?
A: The TGI was 2410 nM.

Q: What about the GI50 (RXF 393 renal) of the same molecule?
A: Its GI50 is 404 nM.

Q: And the TGI (RXF 393 renal)?
A: The TGI was 1680 nM.

Q: And the GI50 (SK-MEL-28 melanoma)?
A: Its GI50 is 1140 nM.

Q: What about the TGI (SK-MEL-28 melanoma) of the same molecule?
A: The TGI was 2430 nM.

Q: And the GI50 (SF-295 CNS)?
A: Its GI50 is 86.6 nM.

Q: What about the TGI (SF-295 CNS) of the same molecule?
A: Its TGI is 1200 nM.

Q: And the GI50 (M14 melanoma)?
A: The GI50 was 444 nM.

Q: What about the TGI (M14 melanoma) of the same molecule?
A: Its TGI is 1980 nM.

Q: And the GI50 (BT-549 breast)?
A: Its GI50 is 1450 nM.

Q: What about the TGI (BT-549 breast) of the same molecule?
A: The TGI was 3020 nM.

Q: What about the GI50 (786-0 renal) of the same molecule?
A: The GI50 was 613 nM.

Q: And the TGI (786-0 renal)?
A: Its TGI is 2070 nM.

Q: What about the GI50 (MALME-3M melanoma) of the same molecule?
A: The GI50 was 1150 nM.

Q: What about the TGI (MALME-3M melanoma) of the same molecule?
A: Its TGI is 2540 nM.

Q: And the GI50 (HCT-116 colon)?
A: The GI50 was 350 nM.

Q: What about the TGI (HCT-116 colon) of the same molecule?
A: The TGI was 1240 nM.

Q: What about the GI50 (UO-31 renal) of the same molecule?
A: The GI50 was 1170 nM.

Q: And the TGI (UO-31 renal)?
A: Its TGI is 2590 nM.

Q: And the GI50 (CAKI-1 renal)?
A: The GI50 was 1760 nM.

Q: What about the TGI (CAKI-1 renal) of the same molecule?
A: Its TGI is 3820 nM.

Q: What about the GI50 (TK-10 renal) of the same molecule?
A: The GI50 was 1360 nM.

Q: What about the TGI (TK-10 renal) of the same molecule?
A: Its TGI is 2680 nM.

Q: What about the GI50 (HS 578T breast) of the same molecule?
A: Its GI50 is 1420 nM.

Q: And the TGI (HS 578T breast)?
A: The TGI was 3850 nM.

Q: What about the GI50 (PC-3 prostate) of the same molecule?
A: Its GI50 is 494 nM.

Q: What about the TGI (PC-3 prostate) of the same molecule?
A: The TGI was 2000 nM.

Q: And the GI50 (KM12 colon)?
A: Its GI50 is 295 nM.

Q: What about the TGI (KM12 colon) of the same molecule?
A: Its TGI is 1460 nM.

Q: And the GI50 (NCI/ADR-RES ovarian)?
A: The GI50 was 550 nM.

Q: What about the TGI (NCI/ADR-RES ovarian) of the same molecule?
A: Its TGI is 2480 nM.

Q: And the GI50 (UACC-62 melanoma)?
A: Its GI50 is 556 nM.

Q: What about the TGI (UACC-62 melanoma) of the same molecule?
A: The TGI was 2120 nM.

Q: And the GI50 (SK-MEL-5 melanoma)?
A: Its GI50 is 994 nM.

Q: What about the TGI (SK-MEL-5 melanoma) of the same molecule?
A: The TGI was 2200 nM.

Q: And the GI50 (K-562 leukemia)?
A: Its GI50 is 88.3 nM.

Q: And the TGI (K-562 leukemia)?
A: Its TGI is 912 nM.

Q: What about the GI50 (MDA-MB-435) of the same molecule?
A: The GI50 was 40.1 nM.

Q: And the TGI (MDA-MB-435)?
A: The TGI was 197 nM.

Q: And the GI50 (SK-MEL-2 melanoma)?
A: Its GI50 is 325 nM.

Q: What about the TGI (SK-MEL-2 melanoma) of the same molecule?
A: The TGI was 1360 nM.

Q: What about the GI50 (LOX IMVI melanoma) of the same molecule?
A: The GI50 was 420 nM.

Q: What about the TGI (LOX IMVI melanoma) of the same molecule?
A: The TGI was 1760 nM.

Q: And the GI50 (SK-OV-3 ovarian)?
A: The GI50 was 473 nM.

Q: What about the TGI (SK-OV-3 ovarian) of the same molecule?
A: The TGI was 1780 nM.

Q: And the GI50 (NCI-H226 lung)?
A: Its GI50 is 1650 nM.

Q: What about the TGI (NCI-H226 lung) of the same molecule?
A: The TGI was 3800 nM.

Q: And the GI50 (COLO 205 colon)?
A: The GI50 was 479 nM.

Q: What about the TGI (COLO 205 colon) of the same molecule?
A: Its TGI is 1810 nM.

Q: And the GI50 (SF-268 CNS)?
A: Its GI50 is 559 nM.

Q: And the TGI (SF-268 CNS)?
A: Its TGI is 2050 nM.

Q: What about the GI50 (NCI-H460 lung) of the same molecule?
A: The GI50 was 348 nM.

Q: And the TGI (NCI-H460 lung)?
A: Its TGI is 1130 nM.

Q: And the GI50 (RPMI-8226 leukemia)?
A: The GI50 was 402 nM.

Q: And the TGI (RPMI-8226 leukemia)?
A: The TGI was 1830 nM.

Q: What about the GI50 (DU-145 prostate) of the same molecule?
A: Its GI50 is 345 nM.

Q: And the TGI (DU-145 prostate)?
A: The TGI was 1230 nM.

Q: And the GI50 (OVCAR-8 ovarian)?
A: The GI50 was 890 nM.

Q: And the TGI (OVCAR-8 ovarian)?
A: Its TGI is 2300 nM.

Q: What about the GI50 (NCI-H23 lung) of the same molecule?
A: Its GI50 is 1100 nM.

Q: What about the TGI (NCI-H23 lung) of the same molecule?
A: The TGI was 2530 nM.

Source: PubChem BioAssay (NCI)
